Values quoted from earlier work, collected in article PMC10460728 (Journal of Pharmacokinetics and Pharmacodynamics, 2023).

Tests used:
[1] = test system: P-gp and CYP3A; conditions: apixaban; cited from earlier work
[2] = test system: CYP3A and P-gp; set-up: method as in PMID 33030266; conditions: assumed in model development, verified with clinical DDI studies; cited from earlier work
[3] = test system: P-gp; conditions: cited from earlier work
[4] = test system: CYP3A; conditions: multiple oral 600 mg rifampicin; cited from earlier work
[5] = test system: CYP3A4; conditions: cited from earlier work
[6] = multiple 160 mg doses of enzalutamide, mean (SD)
[7] = multiple oral 160 mg enzalutamide
[8] = with/without enzalutamide 160 mg multiple doses, geometric mean ratio (90% CI)

**Q.** With COc1ccc(-n2nc(C(N)=O)c3c2C(=O)N(c2ccc(N4CCCCC4=O)cc2)CC3)cc1 [Apixaban, apixaban] as the molecule, how does the “Decrease in AUC by rifampicin” value [1] read?
**A.** The value was 54%.

**Q.** And the “Contribution of CYP3A to hepatic metabolism” value [2]?
**A.** The value was 42%.

**Q.** With C[C@H]1O[C@@H](O[C@H]2[C@@H](O)C[C@H](O[C@H]3[C@@H](O)C[C@H](O[C@H]4CC[C@@]5(C)[C@H](CC[C@@H]6[C@@H]5C[C@@H](O)[C@]5(C)[C@@H](C7=CC(=O)OC7)CC[C@]65O)C4)O[C@@H]3C)O[C@@H]2C)C[C@H](O)[C@@H]1O [Digoxin, digoxin] as the molecule, how does the “AUC ratio, observed” value ([3]; geometric mean ratio (90% CI)) read?
**A.** Its value is 1.29 (1.21–1.38).

**Q.** What about the “Cmax ratio, observed” value ([3]; geometric mean ratio (90% CI)) of the same molecule?
**A.** The value was 1.17 (1.06–1.29).

**Q.** What about the “AUC without enzalutamide, observed” value ([3]; mean (SD)) of the same molecule?
**A.** Its value is 22.1 (4.10) ng·h/mL.

**Q.** And the “Cmax without enzalutamide, observed” value ([3]; mean (SD))?
**A.** Its value is 1.45 (0.314) ng/mL.

**Q.** And the “AUC with enzalutamide, observed” value [3, 6]?
**A.** Its value is 28.7 (5.79) ng·h/mL.

**Q.** And the “Cmax with enzalutamide, observed” value [3, 6]?
**A.** Its value is 1.69 (0.384) ng/mL.

**Q.** And the “Increase in digoxin AUC by enzalutamide” value [3, 7]?
**A.** Its value is 29%.

**Q.** And the “Increase in digoxin Cmax by enzalutamide” value [3, 7]?
**A.** The value was 17%.

**Q.** For Cc1ncc2n1-c1ccc(Cl)cc1C(c1ccccc1F)=NC2 [Midazolam, midazolam], which “Decrease in midazolam AUC by rifampicin” value [4] is on record?
**A.** Its value is “more than 90%”.

**Q.** And the “Midazolam AUC ratio with rifampicin” value [4]?
**A.** Its value is “less than 0.1”.

**Q.** And the “AUC without enzalutamide, observed” value ([5]; mean (SD))?
**A.** Its value is 32.0 (12.8) ng·h/mL.

**Q.** And the “Cmax without enzalutamide, observed” value ([5]; mean (SD))?
**A.** Its value is 9.98 (3.17) ng/mL.

**Q.** And the “AUC with enzalutamide, observed” value [5, 6]?
**A.** The value was 4.22 (0.784) ng·h/mL.

**Q.** What about the “Cmax with enzalutamide, observed” value [5, 6] of the same molecule?
**A.** Its value is 2.29 (0.868) ng/mL.

**Q.** And the “AUC ratio, observed” value [5, 8]?
**A.** Its value is 0.14 (0.12–0.17).

**Q.** What about the “Cmax ratio, observed” value [5, 8] of the same molecule?
**A.** Its value is 0.23 (0.20–0.27).
